From ChEMBL document CHEMBL4229341, “3-Hydroxy-1,5-dihydro-2H-pyrrol-2-ones as novel antibacterial scaffolds against methicillin-resistant Staphylococcus aureus” (2018) come the findings set out here.

A word on the MIC: it is the least concentration at which growth counts as inhibited. Read a high MIC as a need for much substance.

Structures are written as SMILES. ≈ marks a conversion by molar mass, not a printed value.

Assay type in all cases: functional
The subject of test [1] is Staphylococcus aureus. In words: Antibacterial activity against methicillin resistant Staphylococcus aureus ATCC 33591 after 16 to 20 hrs by CLSI method.
In test [2] the test system is Bacillus cereus. Description: Antibacterial activity against Bacillus cereus.
Test [3] concerns Staphylococcus epidermidis. In words: Antibacterial activity against methicillin resistant Staphylococcus epidermidis ATCC 51625 after 16 to 20 hrs by CLSI method.
The subject of test [4] is Staphylococcus aureus. Description: Antibacterial activity against methicillin resistant Staphylococcus aureus ATCC 43300 after 16 to 20 hrs by CLSI method.
Test [5] has as its system Staphylococcus aureus. In words: Antibacterial activity against methicillin resistant Staphylococcus aureus BAA-44 after 16 to 20 hrs by CLSI method.
The test system of test [6] is Staphylococcus aureus. Description: Antibacterial activity against linezolid/methicillin resistant Staphylococcus aureus NR 45926 after 16 to 20 hrs by CLSI method.
For test [7], the system named is Staphylococcus aureus. Description: Antibacterial activity against linezolid/methicillin resistant Staphylococcus aureus NR 45924 after 16 to 20 hrs by CLSI method.
The test system of test [8] is Staphylococcus aureus. Description: Antibacterial activity against methicillin resistant Staphylococcus aureus NR 45913 after 16 to 20 hrs by CLSI method.
The test system of test [9] is Staphylococcus aureus. Description: Antibacterial activity against methicillin resistant Staphylococcus aureus NR 45898 after 16 to 20 hrs by CLSI method.
The test system of test [10] is Staphylococcus epidermidis. Description: Antibacterial activity against methicillin resistant Staphylococcus epidermidis NR 46386 after 16 to 20 hrs by CLSI method.
Test [11] deals with Staphylococcus aureus. Description: Antibacterial activity against methicillin resistant Staphylococcus aureus BAA-1685 after 16 to 20 hrs by CLSI method.
For test [12], the system named is Staphylococcus aureus. Description: Antibacterial activity against methicillin resistant Staphylococcus aureus NR 45906 after 16 to 20 hrs by CLSI method.

Turning to `O=C1C(O)=C(c2cccs2)C2CCCN12` (stereo not drawn), in test [1], the MIC was above 128 µg/mL.

With `O=C1C(O)=C(c2ccc(Br)cc2)C2CCCCN12` (stereo not drawn), the minimal inhibitory concentration (MIC) in [1] was 32 µg/mL (≈ 104 µM).

With `O=C1C(O)=C(c2ccccc2)C2CCCN12` (stereo not drawn), the minimum inhibitory concentration (MIC) in [2] is 50 to 100 µg/mL (≈ 232 to 465 µM); in test [1] it was above 128 µg/mL.

Take `Cc1ccc(C2=C(O)C(=O)N3CCCC23)cc1` (racemic): the MIC in test [1] was found to be 128 µg/mL (≈ 558 µM).

As for `CCC1C(c2ccc(C(F)(F)F)cc2)=C(O)C(=O)N1c1ccccc1` (racemic), the minimal inhibitory concentration (MIC) in test [3] amounted to 8 µg/mL (≈ 23 µM); in test [4] it was 64 µg/mL (≈ 184 µM); in test [5] it was 32 µg/mL (≈ 92.1 µM); in [6], 8 µg/mL (≈ 23 µM); in [7], 16 µg/mL (≈ 46.1 µM); in [8], 8 µg/mL (≈ 23 µM). Besides, the MIC in [9] came to 8 µg/mL (≈ 23 µM); in [10], 4 µg/mL (≈ 11.5 µM); in test [11], 32 µg/mL (≈ 92.1 µM); in [12] it was 8 µg/mL (≈ 23 µM); in [1], 8 µg/mL (≈ 23 µM).

Consider `CCC1C(c2ccc(C(F)(F)F)cc2)=C(O)C(=O)N1CC(C)C` (racemic), for which, in test [1], inhibition of growth (MIC) required 16 µg/mL (≈ 48.9 µM).

On to `O=C1C(O)=C(c2ccc(O)cc2)C2CCCN12` (stereo not drawn), for which the MIC in test [2] was 50 to 100 µg/mL (≈ 216 to 432 µM); in test [1] it was above 128 µg/mL.

Regarding `CC[C@H]1OC(=O)[C@H](C)[C@@H](O[C@H]2C[C@@](C)(OC)[C@@H](O)[C@H](C)O2)[C@H](C)[C@@H](O[C@@H]2O[C@H](C)C[C@H](N(C)C)[C@H]2O)[C@](C)(O)C[C@@H](C)C(=O)[C@H](C)[C@@H](O)[C@]1(C)O` [ERYTHROMYCIN], the MIC in test [6] and in test [7] was 0.5 µg/mL (≈ 0.681 µM) each time.

`CCC1C(c2ccc(C(F)(F)F)cc2)=C(O)C(=O)N1Cc1ccc(C(F)(F)F)cc1` (racemic) had an MIC in test [1] of 32 µg/mL (≈ 74.5 µM).

In turn, `O=C1C(O)=C(c2ccc(C(F)(F)F)cc2)C2CCCCCN12` (racemic) registered an MIC in test [1] of 32 µg/mL (≈ 103 µM).

Regarding `O=C1C(O)=C(c2ccccc2)C2CCCCN12` (stereo not drawn), in [1], the minimum inhibitory concentration (MIC) was above 128 µg/mL.

As for `COc1ccc(C2=C(O)C(=O)N3CCCCC23)cc1` (stereo not drawn), in test [1], the minimal inhibitory concentration (MIC) is above 128 µg/mL.

Molecule `CCC1NC(=O)C(O)=C1c1ccc(C(F)(F)F)cc1` (racemic) had an MIC in test [1] of 128 µg/mL (≈ 472 µM).

In [1], `O=C1C(O)=C(c2ccc(Cl)cc2)C2CCCCN12` (racemic) had an MIC above 128 µg/mL.

Take `O=C1C(O)=C(c2ccc(F)cc2)C2CCCCN12` (racemic): the MIC in test [1] was above 128 µg/mL.

The molecule `CCC1C(c2ccc(C(F)(F)F)cc2)=C(O)C(=O)N1Cc1ccc(OC)cc1OC` (racemic) returned a minimum inhibitory concentration (MIC) in test [1] of 32 µg/mL (≈ 75.9 µM).

`O=C1C(O)=C(c2ccc(Cl)cc2)C2CCCN12` (racemic) came in with an MIC in test [1] above 128 µg/mL.

As to `C=CCN1C(=O)C(O)=C(c2ccc(C(F)(F)F)cc2)C1CC` (racemic), in test [1], 32 µg/mL (≈ 103 µM) was the least that counted as inhibitory (MIC).

In the case of `O=C1C(O)=C(c2ccccc2[N+](=O)[O-])C2CCCN12` (stereo not drawn), the minimum inhibitory concentration (MIC) in [1] is above 128 µg/mL.

In [1], `O=C1C(O)=C(c2ccc(C(F)(F)F)cc2)C2CCCN12` (stereo not drawn) displayed a minimum inhibitory concentration (MIC) of 128 µg/mL (≈ 452 µM).

In test [1], `CCCCCCN1C(=O)C(O)=C(c2ccc(C(F)(F)F)cc2)C1c1ccccc1` (racemic) gave an MIC of 32 µg/mL (≈ 79.3 µM).

In turn, `COC1=C(c2ccc(C(F)(F)F)cc2)C2CCCCN2C1=O` (stereo not drawn) displayed an MIC in [1] above 128 µg/mL.

As for `CCCCCCN1C(=O)C(O)=C(c2ccc(C(F)(F)F)cc2)C1CCCC` (racemic), the minimum inhibitory concentration (MIC) in test [1] worked out at 32 µg/mL (≈ 83.5 µM).

With `CCCCCCN1C(=O)C(O)=C(c2ccc(C(F)(F)F)cc2)C1CCc1ccccc1` (racemic), the minimal inhibitory concentration (MIC) in test [1] was found to be 64 µg/mL (≈ 148 µM).

`CCC1C(c2ccc(C(F)(F)F)cc2)=C(O)C(=O)N1Cc1ccc(-c2ccccc2)cc1` (racemic): in test [1], inhibition of growth (MIC) required 64 µg/mL (≈ 146 µM).

In turn, `CCC1C(c2ccc(C(F)(F)F)cc2)=C(O)C(=O)N1C` (racemic) came in with a minimum inhibitory concentration (MIC) in [1] of 64 µg/mL (≈ 224 µM).

`CCC1C(c2ccc(C(F)(F)F)cc2)=C(O)C(=O)N1C(C)c1ccccc1` (stereo not drawn): it took 32 µg/mL (≈ 85.2 µM) to inhibit growth in test [1] (MIC).

On to `CCC1C(c2ccc(C(F)(F)F)cc2)=C(O)C(=O)N1Cc1ccccc1` (racemic), for which the MIC is 8 µg/mL (≈ 22.1 µM) in [3]; 32 µg/mL (≈ 88.6 µM) in test [4]; 64 µg/mL (≈ 177 µM) in test [5]; 16 µg/mL (≈ 44.3 µM) in test [6]; 32 µg/mL (≈ 88.6 µM) in test [7]; 16 µg/mL (≈ 44.3 µM) in [8]. Also, the MIC stood at 16 µg/mL (≈ 44.3 µM) in [9]; 8 µg/mL (≈ 22.1 µM) in [10]; 32 µg/mL (≈ 88.6 µM) in test [11]; 8 µg/mL (≈ 22.1 µM) in [12]; 8 µg/mL (≈ 22.1 µM) in test [1].

On to `C=CCC1=C(O)C(=O)N2CCCC12` (stereo not drawn), for which, in test [1], the minimal inhibitory concentration (MIC) was above 128 µg/mL.

For the molecule `CCCCCCN1C(=O)C(O)=C(c2ccc(C(F)(F)F)cc2)C1CC` (racemic), the MIC in test [3] amounted to 4 µg/mL (≈ 11.3 µM); in test [4] it was 64 µg/mL (≈ 180 µM); in test [5], 64 µg/mL (≈ 180 µM); in test [6], 32 µg/mL (≈ 90 µM); in test [7] it was 64 µg/mL (≈ 180 µM); in test [8], 32 µg/mL (≈ 90 µM). Moreover, the MIC in [9] amounted to 32 µg/mL (≈ 90 µM); in [10], 8 µg/mL (≈ 22.5 µM); in [11], 64 µg/mL (≈ 180 µM); in test [12] it was 4 µg/mL (≈ 11.3 µM); in test [1] it was 2 µg/mL (≈ 5.63 µM).

Take `O=C1C(O)=C(c2ccc(Br)cc2)C2CCCN12` (stereo not drawn): inhibition of growth in [1] (MIC) required 128 µg/mL (≈ 435 µM).

In [1], `CCCCCC1=C(O)C(=O)N2CCCC12` (stereo not drawn) yielded an MIC above 128 µg/mL.

`C#CCN1C(=O)C(O)=C(c2ccc(C(F)(F)F)cc2)C1CC` (racemic): the minimal inhibitory concentration (MIC) in test [1] is 32 µg/mL (≈ 103 µM).

In turn, `O=C1C(O)=C(c2cccs2)C2CCCCN12` (stereo not drawn) showed an MIC in [1] of 16 µg/mL (≈ 68 µM).

Consider `CCC1C(c2ccc(C(F)(F)F)cc2)=C(O)C(=O)N1C1CCCCC1` (racemic), for which the MIC was found to be 16 µg/mL (≈ 45.3 µM) in test [3]; 64 µg/mL (≈ 181 µM) in test [4]; 32 µg/mL (≈ 90.6 µM) in test [5]; 32 µg/mL (≈ 90.6 µM) in test [6]; 32 µg/mL (≈ 90.6 µM) in [7]; 8 µg/mL (≈ 22.6 µM) in [8]. The MIC stood at 8 µg/mL (≈ 22.6 µM) in test [9]; 2 µg/mL (≈ 5.66 µM) in test [10]; 32 µg/mL (≈ 90.6 µM) in test [11]; 2 µg/mL (≈ 5.66 µM) in test [12]; 8 µg/mL (≈ 22.6 µM) in [1].

`Cc1ccc(C2=C(O)C(=O)N3CCCCC23)cc1` (racemic): the MIC in [1] is above 128 µg/mL.

In test [1], `O=C1C(O)=C(c2ccc(C(F)(F)F)cc2)C2CCCCN12` (stereo not drawn) gave a minimal inhibitory concentration (MIC) of 32 µg/mL (≈ 108 µM).

`O=C1C(O)=C(c2ccc(F)cc2)C2CCCN12` (racemic) registered an MIC in [1] above 128 µg/mL.

For `CC(=O)NC[C@H]1CN(c2ccc(N3CCOCC3)c(F)c2)C(=O)O1` [LINEZOLID], the MIC in test [3] stood at 0.25 µg/mL (≈ 0.741 µM); in test [4] it was 1 µg/mL (≈ 2.96 µM); in test [5], 1 µg/mL (≈ 2.96 µM); in test [8] it was 0.5 µg/mL (≈ 1.48 µM); in [9] it was 0.5 µg/mL (≈ 1.48 µM); in [10], 0.25 µg/mL (≈ 0.741 µM). Also, the minimal inhibitory concentration (MIC) in [11] and in test [1] was 1 µg/mL (≈ 2.96 µM) throughout.

Consider `CC1CCN2C(=O)C(O)=C(c3ccc(C(F)(F)F)cc3)C2C1` (racemic), for which inhibition of growth in test [1] (MIC) required 128 µg/mL (≈ 411 µM).

As for `CCC1C(c2ccc(C(F)(F)F)cc2)=C(O)C(=O)N1Cc1ccncc1` (racemic), the minimum inhibitory concentration (MIC) in test [1] is 64 µg/mL (≈ 177 µM).

The molecule `COc1ccc(C2=C(O)C(=O)N3CCCC23)cc1` (stereo not drawn) registered a minimum inhibitory concentration (MIC) in test [1] above 128 µg/mL.

In turn, `CCC1C(c2ccc(C(F)(F)F)cc2)=C(O)C(=O)N1CCCCO` (racemic) displayed an MIC in test [1] above 128 µg/mL.
